Experimental data taken from paper PMC8221234 (Chemical biology & drug design, 2009).

What was measured:
[1] = tested on: eIF2α phosphorylation in NIH3T3 cells; assay: UV-induced eIF2α phosphorylation in NIH3T3 cells; type: cell-based; settings: compared with MEFs, data not shown
[2] = tested on: eIF2α phosphorylation in NIH3T3 cells; settings: cited from earlier work

Oc1c2ccccc2c2c3c(cccc13)N=N2 [SP600125]
Effect on UV-induced eIF2α phosphorylation in NIH3T3 cells (qualitative) [1]: does not prevent eIF2α phosphorylation
Effect on eIF2α phosphorylation following UV irradiation (qualitative) [2]: did not prevent the phosphorylation of eIF2α
